Assay [1] relates to A. baumannii strain 5075 (AB5075). In words: Macrolide sensitization / antibiotic resensitization: antibiotic MIC in presence of compound (broth microdilution). The format is cell-based, Acinetobacter baumannii. The settings on record: compound at 30 μM vs antibiotic alone; AB5075. In a few lines:
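A. baumannii AB5075 at 5×10^5 CFU/mL in CAMHB held a fixed compound level while antibiotic was serially diluted. After 16-18 h static at 37° C, MIC was the lowest antibiotic concentration without visible growth. Fold-reduction is relative to antibiotic alone, from duplicates repeated at least twice.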
In general terms: In broth dilution the organism is exposed to a series of concentrations in liquid medium.

In the next assay the test system is AB5075. Put plainly: Checkerboard assay for FIC determination with colistin. The format is cell-based, Acinetobacter baumannii. The settings on record: chequerboard, ΣFIC≥2 considered antagonistic. As for the experimental part: Against AB5075, we determined that the ΣFIC with compound 1 to be 17 and the ΣFIC with compound 10 to be 33. These ΣFIC values indicate that both compounds are highly antagonistic with colistin as a ΣFIC≥2 is considered antagonistic.
Day Cultures (6 h) of A. baumannii 5075 were subcultured to 5×10^5 CFU/mL in cation adjusted Mueller-Hinton broth (CAMHB). 100 μL of the inoculated media was distributed into all wells of a 96-well plate except well 1A. Inoculated CAMHB (200 μL) containing compound (twice the highest concentration tested) was added to well 1A, and 100 μL of the same sample was added to wells 2A-12A. The contents in column A were mixed five times before 100 μL was transferred to column B. The contents of column B were mixed 5 times before transferring to column C. This process was repeated with the remainder of the columns up to column G. Column H was not mixed to allow determination of the antibiotic MIC alone. […] Row 12 was not mixed so that the MIC of the compound alone could be determined. The MICs of both compound and antibiotic alone were recorded, as well as the wells containing the combination. The ΣFICs were calculated as follows: ΣFIC=FIC (Compound)+FIC (antibiotic), where FIC (compound) is the MIC of the compound in the combination/MIC of the compound alone and the FIC (antibiotic) is the MIC of the antibiotic in combination/the MIC of the antibiotic alone. […]

Assay [2] has as its system A. baumannii strain 5075 (AB5075). In words: Broth microdilution MIC determination of compound alone. The format is cell-based. The settings on record: Acinetobacter baumannii; compound alone; AB5075; read-out: MIC. The protocol: Our initial screening began by testing a diverse selection of 2-AI compounds from our internal library for their minimal inhibitory concentrations (MIC) against A. baumannii isolate 5075.
Day Cultures (6 h) were subcultured to 5×10^5 CFU/mL in cation adjusted Mueller-Hinton broth (CAMHB). Aliquots (1 mL) were placed in culture tubes, and compound was added from 100 mM stock solutions, such that the compound concentration equaled the highest concentration tested (200 μM or 64 μg/mL). Samples were then aliquoted (200 μL) into the first row of wells of a 96-well plate, with all remaining wells being filled with 100 μL of initial bacterial subculture. The wells in row one were mixed five times before 100 μL was transferred to the following row (row two). Row two was then mixed five times, and 100 μL was transferred to row three. This processed was repeated until the final row had been mixed. This process provided a serial dilution of the compound. Plates were covered with Glad Press n'Seal and were incubated under stationary conditions at 37° C. for 16 hours. MIC values were recorded as the lowest concentration at which no bacterial growth was observed.

≈ marks a conversion by molar mass, not a printed value.

With `Nc1nc(-c2ccc(NC(=O)c3c(Cl)cc(Cl)cc3Cl)cc2)c[nH]1` [Compound 10], in assay [1], the “Fold reduction (erythromycin MIC)” value is 8 fold. For the same compound, the ΣFIC with colistin in the assay on AB5075 was found to be 33. Also, the minimum inhibitory concentration (MIC) in assay [2] is 100 µM (≈ 38.2 µg/mL).

As usually defined, the MIC is the lowest concentration that inhibits growth of the organism.
